Test results from PMC12916826 (Nature Communications, 2026).
Substitutions are numbered along the chain they refer to. Like-named read-outs stand apart in the source and are kept apart here.

Assays:
[1] = cited from earlier work
[2] = cited from earlier work; remark: listed apart in the source
[3] = test system: mice with stroke; details: cited from earlier work
[4] = cited from earlier work; remark: listed apart in the source
[5] = cited from earlier work; remark: listed apart in the source
[6] = target: T1, hGAT3-C316S (Homo sapiens, UniProt P48066, C316S); test: [3H]GABA competition uptake assay, hGAT3-C316S mutant in HEK293T cells; assay type: cell-based
T1 sequence (P48066 1-632 C316S): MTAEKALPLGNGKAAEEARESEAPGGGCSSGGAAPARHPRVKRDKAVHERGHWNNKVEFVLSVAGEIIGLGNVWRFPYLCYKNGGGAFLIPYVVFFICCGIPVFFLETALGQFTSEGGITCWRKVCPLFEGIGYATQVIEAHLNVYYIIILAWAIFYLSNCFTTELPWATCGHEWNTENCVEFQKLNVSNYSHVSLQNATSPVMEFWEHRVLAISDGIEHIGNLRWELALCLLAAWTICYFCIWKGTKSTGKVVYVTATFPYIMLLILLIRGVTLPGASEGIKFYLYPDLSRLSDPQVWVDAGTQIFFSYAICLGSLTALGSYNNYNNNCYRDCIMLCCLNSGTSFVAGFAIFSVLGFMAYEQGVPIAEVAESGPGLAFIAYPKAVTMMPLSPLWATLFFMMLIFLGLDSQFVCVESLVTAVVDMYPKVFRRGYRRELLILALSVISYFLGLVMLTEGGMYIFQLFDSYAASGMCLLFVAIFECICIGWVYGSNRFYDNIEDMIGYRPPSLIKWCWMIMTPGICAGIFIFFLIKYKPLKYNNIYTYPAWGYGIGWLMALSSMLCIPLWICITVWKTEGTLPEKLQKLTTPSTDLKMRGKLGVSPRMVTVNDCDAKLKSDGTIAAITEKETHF

[7] = target: T2, hGAT3 (Homo sapiens, UniProt P48066); test: [3H]GABA competition uptake assay, wild-type hGAT3 in HEK293T cells; assay type: cell-based
T2 sequence (P48066 1-632): T1 sequence (P48066 1-632 C316S) with S316C

[8] = target: T2, hGAT3; test: [3H]GABA uptake kinetic; assay type: cell-based; details: with and without preincubation
[9] = target: T2, hGAT3; test: FLIPR membrane potential; assay type: cell-based
[10] = target: T3, hGAT3-eGFP (Homo sapiens, UniProt P48066); test: Confocal microscopy of membrane-localized hGAT3-eGFP fluorescence; assay type: cell-based; details: 100 µM SR-THAP; 1 h incubation; versus buffer
T3 sequence (P48066 1-632): T1 sequence (P48066 1-632 C316S) with S316C

COc1ccc(C(OCCN2CCC[C@H](C(=O)O)C2)(c2ccc(OC)cc2)c2ccc(OC)cc2)cc1 [(S)-SNAP-5114, (S)−1-{2-[Tris(4-methoxyphenyl)methoxy]ethyl}piperidine-3-carboxylic acid]
solubility [1]: limited
chemical stability [2]: poor
in vivo toxicity [3]: severe in vivo toxicity
cellular toxicity [4]: cellular toxicity
brain uptake after systemic administration [5]: limited

NCCCC(=O)O [GABA, γ-Aminobutyric acid, reference compound]
IC50 [6]: 4.2 µM
IC50 [7]: 6.9 µM

COc1ccc(C(/C=C/CN2CCC[C@@H]2[C@H](O)C(=O)O)(c2ccc(OC)cc2)c2ccc(OC)cc2)cc1 [SR-THAP, (2S, 2′R)−2-hydroxy-2-(1-((E)−4,4,4-tris(4-methoxyphenyl)but-2-en-1-yl)pyrrolidin-2′-yl)acetic acid]
IC50 ([6]; read-out: IC50, inhibition of [3H]GABA uptake by hGAT3-C316S, 120 min preincubation): 10.6 µM
mode of inhibition ([3H]GABA uptake kinetics) [8]: non-competitive
substrate-like response / transport in FMP assay ([9]; 50 µM GABA, 20 µM SR-THAP, compared with buffer): no substrate-like response
mode of inhibition (FMP Michaelis-Menten kinetics) ([9]; absence of preincubation): non-competitive
surface expression of hGAT3 (membrane-localized eGFP fluorescence) [10]: No difference
time to equilibrium between extracellular and cytosolic compound ([7]; from preincubation time course): ≤ 15 min
IC50 ([7]; read-out: IC50, inhibition of [3H]GABA uptake by hGAT3, 120 min preincubation (with preincubation), HEK293T cells): 4.9 µM
increase in potency after 120-min preincubation ([7]; versus without preincubation): five-fold
